According to patent US20230129485A1, “SYSTEM AND METHOD FOR DETERMINING MATERIAL PROPERTIES OF MOLECULAR SYSTEMS FROM AN AB-INITIO PARAMETERIZED FORCE-FIELD” (InterX, Inc., priority 2021, published 2023):
Read-outs that look alike come from different tables or passages of the source.

Assays:
[1] = experimental, cited from earlier work
[2] = Free energy of solvation in cyclohexane predicted with the QM-parameterized force field model (ARROW FF), MD and PIMD; details: Table 4; for CHEX Arrow MD Error: error of MD cyclohexane solvation free energy vs experiment; for CHEX Arrow PIMD4 Error: error of PIMD4 cyclohexane solvation free energy vs experiment
Excerpt: Cyclohexane (CHEX) is nonpolar and equilibrates relatively quickly.
(§1) Particle-Mesh Ewald (PME) algorithm was used to compute the electrostatic interactions. A 32×32×32 grid mesh and 5th power spline interpolation order can be used to compute the inverse PME sum. 9 Å cutoffs were used to compute the direct PME sum as well as the exchange and dispersion interactions. Bulk corrections were applied to account for distance cut-off of dispersion interactions. Solvation free energies were computed by decoupling the interactions between the solute and the solvent molecules. Electrostatic, exchange-repulsion and dispersion interactions were switched off simultaneously using a lambda-dependent scaling (a scaling factor power=2 was used) and a soft-coring algorithm (maximal soft-coring radius=1.5 Å, soft-coring radius scaling factor power=1). 15 lambda points unequally spaced (X=0, 0.05, 0.1, 0.2, 0.3, 0.4, 0.5, 0.6, 0.7, 0.75, 0.8, 0.85, 0.9, 0.95, 1.0) were used to decouple the solute-solvent intermolecular interactions.
(§2) In some simulations of the QM-parameterized force field molecular simulation process, energy minimization (10,000 steps) using the steepest descent algorithm was initially performed on all the simulation systems. This was followed by a 50 ps equilibration and 1 ns production runs in the isothermal-isobaric ensemble (NPT). […] Pressure was maintained at 1 atm using a MTTK barostat (relaxation time=5 ps). A Multiple Time Step (MTS) algorithm was used to integrate the equations of motion both for the classical and path-integral runs. […] The calculations were performed using the QM-parameterized force field model.
(§3) Using the QM-parameterized force field model, the QM-parameterized force field device can compute or predict the solvation free energies using both the Bennett acceptance ratio (BAR) and thermodynamic integration (TI) method with <dH/dλ> values interpolated by cubic splines.

[3] = CHEX/H2O partition coefficient, experimental, cited from earlier work; for logD Exp (logD): Table 4; for Exp (log D): Table 3
[4] = experimental, cited from earlier work; remark: listed apart in the source
[5] = Free energy of hydration predicted with the QM-parameterized force field model (ARROW FF), classical MD and PIMD simulation in a water box; details: for Arrow PIMD8 Error: absolute error vs Exp (hydration)
Excerpt: For example, the example QM-parameterized force-field molecular simulation process 400 can use Bennett Acceptance Ratio (BAR) to compute the free energy of hydration/solvation of the molecule in water or any other solvent. In some implementations, the analysis of the molecular dynamics simulations includes analysis, predication, and visualization of ensemble properties of atoms/molecules from atomic and molecular trajectories using the optimized parameters of the QM-parameterized force field model (i.e., the quantum mechanics rule-based reasoning technique) and the QM-parameterized force field model.
as §1, with “In some simulations of the QM-parameterized force field molecular simulation process, the molecules were placed in a water or cyclohexane box of size 32×32×32 Å3. Particle-Mesh” for “Particle-Mesh”
as §2
as §3, with “splines. […] FIG. 7A illustrates a <dH/dλ> dependence for desolvation of Anthracene in water. FIG. 7B illustrates accumulated statistical errors for TI calculations of AG desolvation of Anthracene in water.” for “splines.”

[6] = CHEX/H2O partition coefficient (log D) predicted with the QM-parameterized force field model (ARROW FF)
Excerpt: In some simulations, the example QM-parameterized force-field molecular simulation process includes using the functional form of the bonded interactions, with force constants and equilibrium values fitted to QM energies at the MP2/aug-cc-pVTZ level of theory. In some simulations, solvents of water and cyclohexane are selected. Cyclohexane (CHEX) is nonpolar and equilibrates relatively quickly. Reliable experimental data for both CHEX solvation free energies, as well as for the CHEX/H2O partition coefficients are used in these simulations.
In some example simulations, solutes containing neutral chemical functional groups, for example carboxylic acids, alkanes, alkenes, aromatics, aldehydes, ketones, alcohols, amides, esters, thiols, sulfides, disulfides and heterocycles, are used. The simulations were performed independently by four groups using their own respective computational resources and architectures, and then averaged. FIGS. 9A-9C show solvation and hydration free energies predictions of various solutes, using the QM-parameterized force field model, in some embodiments.
The straight line is a line of agreement between experimental and simulated/predicted values, and the gray bar is the range or chemical accuracy. […] The molecules here are a subset of those in a) because only those with experimental values for CHEX solvation can be included.

[7] = Free energy of hydration by COSMO implicit solvent model (MolPro ver. 2012); details: absolute error vs Exp (hydration)
Protocol: (§4) Due to unavailability of free energy data for the original COSMO model, the free energies of solvation for the molecule dataset are calculated using MolPro ver. […] The comparisons to other implicit solvent models such as SMD, PCM and COSMO-RS are limited to the overlap of the molecules computed using QM-parameterized force field model. The free energies of hydration as predicted by these implicit solvent models (SMD, PCM) were received.

[8] = implicit solvent model, values received; cited from earlier work
[9] = implicit solvent model, values received; cited from earlier work; remark: listed apart in the source
[10] = Free energy of hydration by Polarizable Continuum Model (PCM); details: absolute error vs Exp (hydration)
Protocol: as §4

[11] = Free energy of hydration by Solvation Model Dielectric (SMD) implicit solvent model; details: absolute error vs Exp (hydration)
Protocol: as §4

[12] = Free energy of hydration by COSMO-RS
Protocol: as §4

[13] = Table 4, solvation free energy in cyclohexane
[14] = Table 4, neutral amino-acid analogues
[15] = Table 4, error of MD hydration free energy vs experiment
[16] = Table 4, error of PIMD8 hydration free energy vs experiment
[17] = Table 3, free energy of solvation in cyclohexane
[18] = Table 3, free energy of hydration
[19] = Table 3, absolute error of MD hydration free energy vs experiment
[20] = Table 3, absolute error of PIMD8 hydration free energy vs experiment
[21] = Table 3, absolute error of MD log D vs experiment
[22] = Table 3, absolute error of PIMD log D vs experiment

| Structure (SMILES) | CHEX Exp (solvation) [1, 13] [kcal/mol] | CHEX Arrow MD Error [2] [kcal/mol] | CHEX Arrow PIMD4 Error [2] [kcal/mol] | logD Exp (logD) [3] | water Exp (hydration) [4, 14] [kcal/mol] | water Arrow MD Error [5, 15] [kcal/mol] | water Arrow PIMD8 Error [5, 16] [kcal/mol] | COSMO/Molpro Error [7] [kcal/mol] | CHEX Exp (solvation) [1, 17] [kcal/mol] | Exp (log D) [3] | SMD free energy of hydration [8] [kcal/mol] | water Exp (hydration) [4, 18] [kcal/mol] | water Arrow MD Error [5, 19] [kcal/mol] | water Arrow PIMD8 Error [5, 20] [kcal/mol] | Arrow PIMD8 Error [5] [kcal/mol] | PCM free energy of hydration [9] [kcal/mol] | PCM Error [10] [kcal/mol] | SMD Error [11] [kcal/mol] | log D Arrow MD Error [6, 21] | COSMO-RS error [12] [kcal/mol] | other results |
| --- | --- | --- | --- | --- | --- | --- | --- | --- | --- | --- | --- | --- | --- | --- | --- | --- | --- | --- | --- | --- | --- |
| Cc1c[nH]cn1 [Methylimidazole (His)] | -5.59 | 0.33 | 0.09 | −3.28 | -10.06 | 0.40 | 0.03 |  |  |  |  |  |  |  |  |  |  |  |  |  | logD Arrow MD Error ([6]; Table 4, error of MD logD vs experiment): 0.05; logD Arrow PIMD Error ([6]; Table 4, error of PIMD logD vs experiment): 0.04 |
| CCCS [Propanethiol] |  |  |  |  |  |  |  | 2.88 | -3.12 | 1.52 | -0.90 | -1.05 | 0.81 | 0.40 | 0.40 | -2.20 | 1.15 | 0.15 | 0.38 |  | log D Arrow PIMD Error [6, 22]: 0.36 |
| CCCCN [butanamine] | -3.92 | 0.06 | 0.06 | −0.23 | -4.24 | 1.17 | 0.28 | 1.55 | -3.92 | −0.23 | -3.50 | -4.24 | 1.17 | 0.28 | 0.28 | -2.80 | 1.44 | 0.74 |  | 0.11 | log D Arrow MD Error [6]: 0.81; log D Arrow PIMD Error [6]: 0.16; logD Arrow MD Error [6]: 0.81; logD Arrow PIMD Error [6]: 0.16 |
| CCC(C)=O [2-Butanone] |  |  |  |  |  |  |  | 4.15 | -3.47 | −0.18 |  |  | 0.43 | 0.16 | 0.16 |  | 0.19 | 0.09 | 0.11 | 0.17 | log D Arrow PIMD Error [6, 22]: 0.21 |
| CCCCC [Pentane] |  |  |  |  |  |  |  |  |  | 4.28 |  |  |  |  |  |  |  |  |  |  | log D Arrow MD Error [6]: 0.39; log D Arrow PIMD Error [6]: 0.17 |
| c1ccc2ccccc2c1 [Napthalene] |  |  |  |  |  |  |  | 2.11 | -7.17 | 3.50 | -1.50 | -2.40 | 0.74 | 0.24 | 0.24 | -2.30 | 0.10 | 0.90 | 0.19 | 0.23 | log D Arrow PIMD Error [6, 22]: 0.01 |
| Cc1c[nH]c2ccccc12 [3-methyl-indole] | -8.08 | 0.24 | 0.01 | 1.61 | -5.88 | 2.00 | 1.02 | 1.95 | -8.08 | 1.61 |  | -5.88 | 2.00 | 1.02 | 1.02 |  |  |  |  | 0.99 | hydration error ([5]; predicted vs experimental free energy of hydration): -1 kcal/mol; log D Arrow MD Error [6]: 1.29; log D Arrow PIMD Error [6]: 0.76; logD Arrow MD Error [6]: 1.29; logD Arrow PIMD Error [6]: 0.76 |
| C=CC=C [Buta-13-diene] |  |  |  |  |  |  |  | 3.28 |  |  | 0.90 | 0.61 | 0.31 | 0.35 | 0.35 | -1.30 | 1.91 | 0.29 |  | 0.47 |  |
| c1ccc2cc3ccccc3cc2c1 [Anthracene] |  |  |  |  |  |  |  | 1.77 |  |  | -2.20 | -3.95 | 0.32 | 0.07 | 0.07 | -2.90 | 1.05 | 1.75 |  | 0.17 | estimated statistical error of computed free energy of solvation ([5]; 1 ns trajectory, TI, FIG. 7B, in water): about 0.2 kcal/mol |
| CCCCCC [Hexane] |  |  |  |  |  |  |  | 3.37 |  |  | 2.40 | 2.51 | 0.94 | 0.06 | 0.06 | -0.20 | 2.71 | 0.11 |  | 0.06 |  |
